# What was measured:
# ΔF508-CFTR [1] = molecular target: T1, ΔF508-CFTR (Homo sapiens, UniProt P13569, DEL508-508); test: CFTR cell surface levels using HRP-tagged ΔF508-CFTR expressing CFBE cells, in the presence of a co-corrector; format: cell-based; conditions: HRP-tagged ΔF508-CFTR expressing CFBE cells, in the presence of 3 μM co-corrector; for EC50: read-out: EC50
# T1 construct: host or cells: CFBE41o-, doxycycline-inducible
# Outline: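 Cells were seeded with 0.5 μg/mL doxycycline and held 68 h at 37 °C. Test compounds plus 3 μM co-corrector (final 0.1% DMSO) were then added for 20 h at 33 °C. Washed cells received HRP substrate, and luminescence was normalized between DMSO and 3 μM co-corrector controls.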
# ΔF508-CFTR [2] = molecular target: T1, ΔF508-CFTR; test: CFTR cell surface levels using HRP-tagged ΔF508-CFTR expressing CFBE cells, intrinsic corrector capacity; format: cell-based; conditions: HRP-tagged ΔF508-CFTR expressing CFBE cells, intrinsic corrector capacity (no co-corrector), 33° C., 20 hours; for EC50: read-out: EC50
# Outline: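 Here the cells express ΔF508-CFTR with horseradish peroxidase inserted in extracellular loop 4, so only rescued channel at the surface gives luminescent signal. Compounds act on their own, 20 h at the reduced temperature of 33 °C; values are percent activity relative to DMSO and a 3 μM corrector.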
# T1 sequence (P13569 with tags, fused parts or gaps DEL508-508): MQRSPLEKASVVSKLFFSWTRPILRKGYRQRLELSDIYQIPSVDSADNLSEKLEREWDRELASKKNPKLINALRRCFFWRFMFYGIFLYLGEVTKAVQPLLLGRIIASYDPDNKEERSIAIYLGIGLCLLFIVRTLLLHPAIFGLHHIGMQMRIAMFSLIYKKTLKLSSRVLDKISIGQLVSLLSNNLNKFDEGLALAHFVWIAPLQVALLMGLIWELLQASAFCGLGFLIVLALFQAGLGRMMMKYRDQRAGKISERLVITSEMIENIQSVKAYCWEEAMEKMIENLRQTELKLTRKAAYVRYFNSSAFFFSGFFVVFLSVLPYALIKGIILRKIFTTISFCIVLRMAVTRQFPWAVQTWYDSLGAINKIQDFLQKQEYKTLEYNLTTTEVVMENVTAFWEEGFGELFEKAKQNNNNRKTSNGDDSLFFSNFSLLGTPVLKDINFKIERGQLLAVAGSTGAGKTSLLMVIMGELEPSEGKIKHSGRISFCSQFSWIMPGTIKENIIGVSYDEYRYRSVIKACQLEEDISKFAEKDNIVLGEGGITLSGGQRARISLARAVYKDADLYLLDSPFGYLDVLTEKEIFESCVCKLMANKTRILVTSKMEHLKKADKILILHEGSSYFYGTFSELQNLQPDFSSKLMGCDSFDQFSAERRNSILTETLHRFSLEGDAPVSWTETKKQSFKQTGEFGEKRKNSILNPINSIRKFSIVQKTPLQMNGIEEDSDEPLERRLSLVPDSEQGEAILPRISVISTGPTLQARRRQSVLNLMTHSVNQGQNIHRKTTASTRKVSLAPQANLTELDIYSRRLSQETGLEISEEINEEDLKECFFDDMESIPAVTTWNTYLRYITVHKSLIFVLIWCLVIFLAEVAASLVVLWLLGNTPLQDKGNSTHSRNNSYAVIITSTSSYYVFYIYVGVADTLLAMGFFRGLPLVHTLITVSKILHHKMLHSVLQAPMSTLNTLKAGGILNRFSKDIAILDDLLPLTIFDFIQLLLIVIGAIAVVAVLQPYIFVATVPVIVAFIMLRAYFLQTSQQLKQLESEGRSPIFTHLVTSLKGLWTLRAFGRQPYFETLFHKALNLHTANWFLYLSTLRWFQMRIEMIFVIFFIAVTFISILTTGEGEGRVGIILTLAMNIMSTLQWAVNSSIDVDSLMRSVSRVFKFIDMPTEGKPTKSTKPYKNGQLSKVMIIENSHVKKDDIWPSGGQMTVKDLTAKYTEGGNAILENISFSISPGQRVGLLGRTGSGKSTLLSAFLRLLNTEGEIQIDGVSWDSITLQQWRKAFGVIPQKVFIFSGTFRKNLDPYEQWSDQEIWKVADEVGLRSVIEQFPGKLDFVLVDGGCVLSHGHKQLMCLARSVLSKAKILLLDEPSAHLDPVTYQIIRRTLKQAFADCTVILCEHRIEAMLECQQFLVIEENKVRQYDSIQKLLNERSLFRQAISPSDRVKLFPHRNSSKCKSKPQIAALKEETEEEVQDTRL
Compound,% Activation (ΔF508-CFTR [1]),EC50 (ΔF508-CFTR [1]),% Activation (ΔF508-CFTR [2]),EC50 (ΔF508-CFTR [2])
"O=C(O)c1cc(N2CCCC3(CC3)C2)c2c(C3CCC3)nn(-c3ccccc3)c2n1 [compound 419, 4-(5-azaspiro[2.5]octan-5-yl)-3-cyclobutyl-1-phenyl-1H-pyrazolo[3,4-b]pyridine-6-carboxylic acid]",293.9%,509 nM,136%,983 nM
"N#CC1CCN(c2ccc(-c3cc(C(=O)O)nc4c3c(C3CC(F)(F)C3)nn4-c3ccccc3)cn2)CC1 [compound 420, 4-[6-(4-cyanopiperidin-1-yl)pyridin-3-yl]-3-(3,3-difluorocyclobutyl)-1-phenyl-1H-pyrazolo[3,4-b]pyridine-6-carboxylic acid]",411.25%,289 nM,211.15%,534 nM
"CO[C@H]1C[C@@H](c2nn(-c3ccccc3)c3nc(C(=O)O)cc(-c4ccc(N5CCC(C#N)CC5)nc4)c32)C1 [compound 421, 4-[6-(4-cyanopiperidin-1-yl)pyridin-3-yl]-3-(cis-3-methoxycyclobutyl)-1-phenyl-1H-pyrazolo[3,4-b]pyridine-6-carboxylic acid]",368.65%,723 nM,184.4%,1290 nM
"COCCN(C)c1cc(C(=O)O)nc2c1c(C1CCC1)nn2-c1ccccc1 [compound 422, 3-cyclobutyl-4-[(2-methoxyethyl)(methyl)amino]-1-phenyl-1H-pyrazolo[3,4-b]pyridine-6-carboxylic acid]",336.05%,1000 nM,131.9%,1620 nM
"O=C(O)c1cc(N2CCC3(C2)CC3(F)F)c2c(C3CCC3)nn(-c3ccccc3)c2n1 (centres unmarked) [compound 423, 3-cyclobutyl-4-(1,1-difluoro-5-azaspiro [2. 4]heptan-5-yl)-1-phenyl-1H-pyrazolo[3,4-b]pyridine-6-carboxylic acid]",299.25%,920 nM,113.4%,934 nM
"O=C(O)c1cc(N2CC3(CCCCO3)C2)c2c(C3CCC3)nn(-c3ccccc3)c2n1 [compound 424, 3-cyclobutyl-4-(5-oxa-2-azaspiro[3.5]nonan-2-yl)-1-phenyl-1H-pyrazolo[3,4-b]pyridine-6-carboxylic acid]",254.9%,829 nM,86.32%,1080 nM
"O=C(O)c1cc(N2CC3(CCOCC3)C2)c2c(C3CCC3)nn(-c3ccccc3)c2n1 [compound 425, 3-cyclobutyl-4-(7-oxa-2-azaspiro[3.5]nonan-2-yl)-1-phenyl-1H-pyrazolo[3,4-b]pyridine-6-carboxylic acid]",262.45%,349 nM,123.35%,990 nM
"O=C(O)c1cc(N2CC3(CCC3)C2)c2c(C3CCC3)nn(-c3ccccc3)c2n1 [compound 426, 4-(2-azaspiro[3.3]heptan-2-yl)-3-cyclobutyl-1-phenyl-1H-pyrazolo[3,4-b]pyridine-6-carboxylic acid]",253.5%,897 nM,76.06%,998 nM
"O=C(O)c1cc(N2CCC(COCc3ccccc3)CC2)c2c(C3CCC3)nn(-c3ccccc3)c2n1 [compound 427, 4-{4-[(benzyloxy)methyl]piperidin-1-yl}-3-cyclobutyl-1-phenyl-1H-pyrazolo[3,4-b]pyridine-6-carboxylic acid]",418.9%,577 nM,200.4%,663 nM
"CO[C@H]1CC[C@@H](Oc2cc(C(=O)O)nc3c2c(C2CCC2)nn3-c2ccccc2)CC1 [compound 428, 3-cyclobutyl-4-[(cis-4-methoxycyclohexyl)oxy]-1-phenyl-1H-pyrazolo[3,4-b]pyridine-6-carboxylic acid]",296%,380 nM,128.05%,978 nM
"CO[C@H]1CC[C@H](Oc2cc(C(=O)O)nc3c2c(C2CCC2)nn3-c2ccccc2)CC1 [compound 429, 3-cyclobutyl-4-[(trans-4-methoxycyclohexyl)oxy]-1-phenyl-1H-pyrazolo[3,4-b]pyridine-6-carboxylic acid]",268.2%,370 nM,114.95%,979 nM
"CC1(C)CC(c2nn(-c3ccccc3)c3nc(C(=O)O)cc(-c4ccc(N5CCC(C#N)CC5)nc4)c23)C1 [compound 430, 4-[6-(4-cyanopiperidin-1-yl)pyridin-3-yl]-3-(3,3-dimethylcyclobutyl)-1-phenyl-1H-pyrazolo[3,4-b]pyridine-6-carboxylic acid]",342.17%,243 nM,175.73%,373 nM
"COCC1CCN(c2cc(C(=O)O)nc3c2c(C(C)C)nn3C2CCCCC2)CC1 [compound 431, 1-cyclohexyl-4-[4-(methoxymethyl)piperidin-1-yl]-3-(propan-2-yl)-1H-pyrazolo[3,4-b]pyridine-6-carboxylic acid]",416.6%,425 nM,198.57%,543 nM
"N#CC1CCN(c2ccc(-c3cc(C(=O)O)nc4c3c([C@H]3C[C@@H](F)C3)nn4-c3ccccc3)cn2)CC1 [compound 432, 4-[6-(4-cyanopiperidin-1-yl)pyridin-3-yl]-3-(cis-3-fluorocyclobutyl)-1-phenyl-1H-pyrazolo[3,4-b]pyridine-6-carboxylic acid]",388.23%,298 nM,197.97%,561 nM
"N#CC1CCN(c2ccc(-c3cc(C(=O)O)nc4c3c([C@H]3C[C@H](F)C3)nn4-c3ccccc3)cn2)CC1 [compound 433, 4-[6-(4-cyanopiperidin-1-yl)pyridin-3-yl]-3-(trans-3-fluorocyclobutyl)-1-phenyl-1H-pyrazolo[3,4-b]pyridine-6-carboxylic acid]",369.1%,367 nM,185.45%,629 nM
"O=C(O)c1cc(OC[C@H](F)C2CCOCC2)c2c(C3CCC3)nn(-c3ccccc3)c2n1 [compound 434, 3-cyclobutyl-4-[(2R)-2-fluoro-2-(oxan-4-yl)ethoxy]-1-phenyl-1H-pyrazolo[3,4-b]pyridine-6-carboxylic acid]",342.8%,328 nM,154.17%,581 nM
"O=C(O)c1cc(OCC2CCC(F)(F)C2)c2c(C3CCC3)nn(-c3ccccc3)c2n1 (centres unmarked) [compound 435, 3-cyclobutyl-4-[(3,3-difluorocyclopentyl)methoxy]-1-phenyl-1H-pyrazolo[3,4-b]pyridine-6-carboxylic acid]",290.05%,453 nM,116.7%,773 nM
"O=C(O)c1cc(OCCN2CCS(=O)(=O)CC2)c2c(C3CCC3)nn(-c3ccccc3)c2n1 [compound 436, 3-cyclobutyl-4-[2-(1,1-dioxo-lλ^6,4-thiazinan-4-yl)ethoxy]-1-phenyl-1H-pyrazolo[3,4-b]pyridine-6-carboxylic acid]",157.15%,2510 nM,24.16%,4170 nM
"CC(C)c1nn(-c2ccnc(N3CCOCC3)c2)c2nc(C(=O)O)cc(-c3ccc(N4CCC(C#N)CC4)nc3)c12 [compound 437, 4-[6-(4-cyanopiperidin-1-yl)pyridin-3-yl]-1-[2-(morpholin-4-yl)pyridin-4-yl]-3-(propan-2-yl)-1H-pyrazolo[3,4-b]pyridine-6-carboxylic acid]",419.53%,795 nM,247.47%,1230 nM
"COC(C)(C)C1CCN(c2cc(C(=O)O)nc3c2c(C(C)C)nn3-c2ccc(F)cc2)CC1 [compound 438, 1-(4-fluorophenyl)-4-[4-(2-methoxypropan-2-yl)piperidin-1-yl]-3-(propan-2-yl)-1H-pyrazolo[3,4-b]pyridine-6-carboxylic acid]",507.27%,387 nM,277.03%,331 nM
"CN(c1cc(C(=O)O)nc2c1c(C1CCC1)nn2-c1ccccc1)[C@H]1C[C@@H](OC(C)(C)C)C1 [compound 439, 4-[(cis-3-tert-butoxycyclobutyl)(methyl)amino]-3-cyclobutyl-1-phenyl-1H-pyrazolo[3,4-b]pyridine-6-carboxylic acid]",312.85%,1110 nM,120.85%,1120 nM
"CC1CN(c2cc(C(=O)O)nc3c2c(C2CCC2)nn3-c2ccccc2)C1 [compound 440, 3-cyclobutyl-4-(3-methylazetidin-1-yl)-1-phenyl-1H-pyrazolo[3,4-b]pyridine-6-carboxylic acid]",308.95%,1930 nM,104.7%,1920 nM
"O=C(O)c1cc(N2CCC(F)(F)C2)c2c(C3CCC3)nn(-c3ccccc3)c2n1 [compound 441, 3-cyclobutyl-4-(3,3-difluoropyrrolidin-1-yl)-1-phenyl-1H-pyrazolo[3,4-b]pyridine-6-carboxylic acid]",289.75%,1510 nM,111.85%,2050 nM
